# Several values for one entry are separate records, joined by “and”; a condition that tells them apart may be missing. Equal entries are not always repeated. Entries after “also recorded” stand apart in the source; their conditions may differ. Where two headings read alike, the source gives them in different places.
# Tests used:
# [1] = Pharmacokinetic analyses in mouse; type: in vivo; details: mouse; for AUC(0-inf): read-out: AUCinf; for Vd: read-out: Vss
# Procedure: Compound concentrations in plasma aliquots were measured by quantitative HPLC-MS/MS using an internal standard. Calibration and quality control samples were prepared using blank plasma from untreated animals. Samples were precipitated with acetonitrile and injected into a HPLC system (Agilent 1200). Separation was performed by gradients of 5 mmol/L ammonium acetate pH 4.0 and acetonitrile with 0.1% formic acid on a 2.1 mm by 50 mm XBridge BEH C18 reversed-phase column with 2.5 µm particles (Waters). The HPLC was interfaced by ESI operated in positive ionisation mode to a triple quadrupole mass spectrometer (5000 or 6500+ Triple Quad System, SCIEX) operated in multiple reaction monitoring mode. Transitions were 532.4 to 432.8 m/z for BI01810284, 525.6 to 425.7 m/z for BI01802983 and 1021.6 to 624.2 m/z for BI01580883. Chromatograms were analyzed with Analyst (SCIEX) and pharmacokinetic parameters were calculated by non-compartmental analysis using BI-proprietary software.
# SMARCA2 = SMARCA2 (Homo sapiens, UniProt P51531); experiment: SMARCA2 IHC in NCI-H1568 xenograft tumours; type: in vivo, mouse; parameters: from tissue; host or cells: subcutaneous NCI-H1568 or A549 xenograft tumours in BomTac:NMRI-Foxn1nu mice; details: NCI-H1568 xenograft; for SMARCA2 (OD, normalised) / SMARCA2 Nuclear OD: qd, end of study
# Sequence of SMARCA2 (P51531 whole entry): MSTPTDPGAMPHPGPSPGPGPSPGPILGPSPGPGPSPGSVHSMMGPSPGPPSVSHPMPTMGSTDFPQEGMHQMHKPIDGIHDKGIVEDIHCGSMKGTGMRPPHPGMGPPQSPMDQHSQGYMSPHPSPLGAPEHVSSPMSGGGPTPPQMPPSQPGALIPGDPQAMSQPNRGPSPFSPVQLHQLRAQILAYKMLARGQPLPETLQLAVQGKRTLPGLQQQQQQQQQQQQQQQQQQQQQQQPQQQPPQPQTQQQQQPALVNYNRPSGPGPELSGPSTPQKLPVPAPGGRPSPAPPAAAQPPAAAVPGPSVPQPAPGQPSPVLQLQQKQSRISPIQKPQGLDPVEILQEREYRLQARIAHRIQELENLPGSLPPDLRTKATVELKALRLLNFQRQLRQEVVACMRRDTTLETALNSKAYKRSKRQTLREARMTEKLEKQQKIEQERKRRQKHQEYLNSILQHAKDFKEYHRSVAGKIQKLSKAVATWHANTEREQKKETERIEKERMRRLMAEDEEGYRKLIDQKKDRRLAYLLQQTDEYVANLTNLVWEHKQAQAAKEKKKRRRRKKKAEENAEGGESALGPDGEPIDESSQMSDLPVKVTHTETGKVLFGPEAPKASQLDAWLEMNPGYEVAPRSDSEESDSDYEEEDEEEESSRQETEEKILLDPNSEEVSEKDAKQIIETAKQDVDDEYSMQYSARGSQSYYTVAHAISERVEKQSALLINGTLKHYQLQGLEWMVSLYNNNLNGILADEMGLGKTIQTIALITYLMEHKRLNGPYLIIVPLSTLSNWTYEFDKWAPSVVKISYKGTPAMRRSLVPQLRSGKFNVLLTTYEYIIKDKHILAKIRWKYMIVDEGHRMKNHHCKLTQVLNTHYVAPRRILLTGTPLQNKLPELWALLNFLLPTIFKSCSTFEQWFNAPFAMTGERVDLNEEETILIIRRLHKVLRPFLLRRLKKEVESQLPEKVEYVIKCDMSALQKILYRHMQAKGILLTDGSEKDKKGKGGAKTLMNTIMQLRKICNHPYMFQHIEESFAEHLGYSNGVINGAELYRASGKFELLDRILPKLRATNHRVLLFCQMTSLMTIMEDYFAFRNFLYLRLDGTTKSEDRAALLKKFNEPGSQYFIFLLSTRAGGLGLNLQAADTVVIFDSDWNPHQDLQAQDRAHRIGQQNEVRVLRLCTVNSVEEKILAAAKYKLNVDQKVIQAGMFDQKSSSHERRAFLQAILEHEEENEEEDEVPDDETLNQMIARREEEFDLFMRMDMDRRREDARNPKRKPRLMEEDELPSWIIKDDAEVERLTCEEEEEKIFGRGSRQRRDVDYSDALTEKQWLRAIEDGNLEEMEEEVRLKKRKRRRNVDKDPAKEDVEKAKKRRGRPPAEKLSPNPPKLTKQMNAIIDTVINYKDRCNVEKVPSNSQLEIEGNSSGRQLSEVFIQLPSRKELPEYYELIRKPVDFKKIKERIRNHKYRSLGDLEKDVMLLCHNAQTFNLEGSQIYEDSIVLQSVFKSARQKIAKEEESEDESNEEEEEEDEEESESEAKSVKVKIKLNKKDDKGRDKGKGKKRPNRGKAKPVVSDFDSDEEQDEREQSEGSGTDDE
# Procedure: (§1) To establish subcutaneous tumours, mice were injected with 5 × 10^6 NCI-H1568 in PBS with 5% FCS or with 1 × 10^7 A549 cells in PBS with 5% FCS. Tumour diameters were measured with a caliper three times a week. The volume of each tumour (in mm^3) was calculated according to the formula [tumour volume = length × diameter^2 × π/6]. To monitor side effects of treatment, mice were inspected daily for abnormalities and body weight was determined daily after the start of treatment. Animals were sacrificed when the tumours reached a size of 1500 mm^3. Mice were randomised into treatment groups when the average tumour size reached ~210–220 mm^3. Group sizes were calculated individually for each tumour model based on tumour growth during model establishment experiments. A power analysis was performed using a sample size calculator (https://www.stat.ubc.ca/~rollin/stats/ssize/n2.html). For both models used in the study, 10 mice per group were used for each experiment. All administrations were dosed with 10 ml/kg (s.c. and oral). Control mice were dosed subcutaneously with 10% HP-β-CD in 50% Ringer solution and orally with 15% HP-β-CD, that means the control mouse treatment was corresponding to the solvent of the compounds. Compound 6 was dosed subcutaneously either in a d1-4 q3d, d6-8 q2d, d11-13 q2d treatment (Treatment 1) or a q3 or 4d treatment (Treatment 2).
# Xenograft samples were fixed in 10% formaldehyde for 24 h and later moved to ethanol and embedded in paraffin. 2 µm-thick sections were cut using a microtome, then placed on glass slides ([…], silan printer slides PR-S:001), and subsequently dewaxed. SMARCA2 immunohistochemistry was carried out on the Leica BOND RX platform (Leica Biosystems) according to manufacturer’s instructions using a human-specific SMARCA2 antibody (Cell Signalling #11966 clone D9E8B RRID:AB_2797783 1:400) where the tissue underwent a heat-induced epitope retrieval for 20 min. After staining, the slides were cover-slipped with Shandon Consul-Mount glass covers, scanned using a slide scanner (3D HISTECH Ltd.). All slides were reviewed and evaluated for quality by a board-certified MD specialist in Anatomic Pathology (PC). Imaging analysis was performed using the digital pathology platform HALO (Indica Labs). A tissue-classifying algorithm was trained to selectively recognise viable tumour tissue against stroma, necrosis, and skin. The tissue classification output for each scan was reviewed and manually edited as necessary. A cell detection and scoring algorithm was trained to measure DAB optical density (OD) in the nuclei of tumour cells. A positivity threshold for DAB OD was determined by normalisation with respect to the DAB OD as calculated from bona fide negative tissue (e.g. murine stroma as background). The average, background-normalised DAB OD of tumour cell nuclei was used to quantitate SMARCA2 expression in each xenograft sample.
# [2] = Body weight / tolerability in xenograft studies; type: in vivo, mouse; details: NCI-H1568 xenograft efficacy study, body weight changes
# Procedure: as §1
# [3] = 30 mg/kg p.o., NCA, individual animals, 30 mg/kg
# [4] = plasma, iv, 5 mg/kg, 5 mg/kg i.v., NCA, individual animals
# [5] = 30 mg/kg po, individual tumours, 30 mg/kg
# [6] = 100 mg/kg, PO, 48 h, individual tumours
smiles,measurement,setting,value
Cc1ncsc1-c1ccc([C@H](CCCCCN2CCC(c3ccc4c(c3)n(C3CCCC3)c3nc(=O)c5c(Br)cccc5n43)CC2)NC(=O)[C@@H]2C[C@@H](O)CN2C(=O)[C@@H](NC(=O)C2(F)CC2)C(C)(C)C)cc1 [compound 11],Plasma concentration,"[1]; 30 mg/kg p.o., 24 h, individual animals, 30 mg/kg",6.48 nM and 10.4 nM
same,AUC,[1]; [3],8.84 µM·h and 4.54 µM·h and 14.6 µM·h
same,AUCinf,[1]; [3],8.88 µM·h and 4.57 µM·h and 14.6 µM·h
same,F,[1]; [3],4.09% and 2.11% and 6.74%
same,concentration at 0.25 h,"[1]; plasma, intravenous, 5 mg/kg, 5 mg/kg i.v., time 0.25 h, individual animals, read-out: Concentration",9710 nM
same,concentration at 1 h,"[1]; plasma, intravenous, 5 mg/kg, 5 mg/kg i.v., time 1 h, individual animals, read-out: Concentration",5970 nM
same,concentration at 6 h,"[1]; plasma, intravenous, 5 mg/kg, 5 mg/kg i.v., time 6 h, individual animals, read-out: Concentration",1490 nM
same,concentration at 24 h,"[1]; plasma, intravenous, 5 mg/kg, 5 mg/kg i.v., time 24 h, individual animals, read-out: Concentration",42.1 nM
same,AUC,"[1]; plasma, iv, 5 mg/kg, 5 mg/kg i.v., individual animals, read-out: AUC",30.4 µM·h
same,AUC(0-inf),"[1]; plasma, iv, 5 mg/kg, 5 mg/kg i.v., individual animals",30.6 µM·h
same,concentration at 0.25 h,"[1]; plasma, iv, 5 mg/kg, 5 mg/kg i.v., 0.25 h, individual animals, read-out: Plasma concentration",8050 nM
same,concentration at 1 h,"[1]; plasma, iv, 5 mg/kg, 5 mg/kg i.v., 1 h, individual animals, read-out: Plasma concentration",5350 nM
same,concentration at 6 h,"[1]; plasma, iv, 5 mg/kg, 5 mg/kg i.v., 6 h, individual animals, read-out: Plasma concentration",807 nM
same,concentration at 24 h,"[1]; plasma, iv, 5 mg/kg, 5 mg/kg i.v., 24 h, individual animals, read-out: Plasma concentration",37.6 nM
same,AUC,"[1]; plasma, iv, 5 mg/kg, 5 mg/kg i.v., NCA, individual animals, read-out: AUC",30.4 µM·h
same,AUC(0-inf),[1]; [4],30.6 µM·h
same,clearance,"[1]; plasma, iv, 5 mg/kg, 5 mg/kg i.v., NCA, individual animals, read-out: CL",2.59 mL/min/kg
same,Vd,[1]; [4],0.435 L/kg
same,Vd,"[1]; plasma, iv, 5 mg/kg, 5 mg/kg i.v.",0.385 L/kg
same,clearance,"[1]; plasma, iv, 5 mg/kg, 5 mg/kg i.v., read-out: clearance",2.2 mL/min/kg
same,concentration at 1 h,"[1]; plasma, oral, 30 mg/kg, 30 mg/kg p.o., time 1 h, individual animals, read-out: Concentration",337 nM
same,concentration at 2 h,"[1]; plasma, oral, 30 mg/kg, 30 mg/kg p.o., time 2 h, individual animals, read-out: Concentration",874 nM
same,concentration at 24 h,"[1]; plasma, oral, 30 mg/kg, 30 mg/kg p.o., time 24 h, individual animals, read-out: Concentration",8.75 nM
same,bioavailability,"[1]; plasma, oral, 30 mg/kg, 30 mg/kg p.o. vs 5 mg/kg i.v., read-out: F% p.o. (oral bioavailability)",3%
same,concentration at 1 h,"[1]; plasma, po, 30 mg/kg, 30 mg/kg p.o., 1 h, individual animals, read-out: Plasma concentration",337 nM
same,concentration at 2 h,"[1]; plasma, po, 30 mg/kg, 30 mg/kg p.o., 2 h, individual animals, read-out: Plasma concentration",874 nM
same,concentration at 24 h,"[1]; plasma, po, 30 mg/kg, 30 mg/kg p.o., 24 h, individual animals, read-out: Plasma concentration",8.75 nM
same,"SMARCA2 levels in tumours at the end of the efficacy study, IHC",SMARCA2,undetectable by IHC in most treated tumour samples; also recorded: below the limit of detection
same,"SMARCA2 (OD, normalised)",SMARCA2; [5],0.00000 and 0.00917
same,SMARCA2 Nuclear OD,SMARCA2; [5],0.03172 and 0.04361 and 0.06213 and 0.0483
same,median decrease of SMARCA2 levels in viable tumour tissue compared to vehicle,"SMARCA2; 100 mg/kg p.o., 48 h after treatment",89%
same,"SMARCA2 (OD, normalised)","SMARCA2; 100 mg/kg po, individual tumours",0.00000
same,SMARCA2 Nuclear OD,"SMARCA2; 100 mg/kg po, individual tumours, 100 mg/kg",0.03159 and 0.03653 and 0.04664 and 0.03486
same,Avg Stain 1 Nuclear OD (SMARCA2 IHC),SMARCA2; [6],7.84E-02 and 7.05E-02 and 6.17E-02 and 6.89E-02
same,Normalised SMARCA2 (OD),SMARCA2; [6],0.04325 and 0.03531 and 0.02651 and 0.03377
same,tolerability,[2],well tolerated

# Reference: PMC9551036, “A selective and orally bioavailable VHL-recruiting PROTAC achieves SMARCA2 degradation in vivo” (Nature Communications, 2022)
